Data on 31 compounds can be found in US20170216252A1, “ANTI-BACTERIAL PYRUVATE KINASE MODULATOR COMPOUNDS, COMPOSITIONS, USES AND METHODS” (SIMON FRASER UNIVERSITY, priority 2014, published 2017).

Values after ≈ are worked out from the molar mass of the structure shown. Where two headings read alike, the source gives them in different places.

Test [1] has as its target T1, MRSA PK (Staphylococcus aureus, UniProt Q6GG09).
T1 construct: His tag (pET-28a(+) vector) (N); made in house; host or cells: E. coli BL-21 (DE3)
The test is described as follows: MRSA PK activity, continuous LDH-coupled assay. The test is classed as biochemical, S. aureus (MRSA strain Sanger 252). The settings on record: for inhibition at 10 µM: read-out: % inhibition at the highest concentration tested (IC50). Summed up: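 Activity was tracked as the 340 nm absorbance fall from NADH oxidation via coupled LDH, at 30 °C for ≤5 min. Reactions began on adding 15 nM recombinant His-tagged S. aureus PK, with inhibitor DMSO kept ≤1%. Four-parameter dose–response fitting gave IC50.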

Test [2] relates to S. aureus ATCC 29213. Description: In vitro susceptibility, broth microdilution MIC. The test is classed as cell-based, Staphylococcus aureus. The following applies: Staphylococcus aureus, read-out: MIC. The method, boiled down:
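The MIC against S. aureus 29213 was determined by CLSI 2-fold serial broth microdilution in Mueller Hinton broth. Plates were incubated for 18–24 h at 37 °C and read at OD600 with background subtracted. The MIC was the lowest concentration giving complete growth inhibition versus compound-free wells.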
On the technique in general: Dilution methods test growth across graded concentrations, often in twofold steps.

The mark [3] stands for this setting: ATCC29213, Tables 1-6 and text, minimum concentration to give >98% inhibition of growth.
Where [4] appears, read: ATCC29213, Table 8, tested at least in duplicate, differing values all given.
[5] abbreviates: Tables 1-6, 2 mM ADP, 10 mM PEP, 15 nM PK, read-out: IC50.

T1 sequence (Q6GG09 whole entry): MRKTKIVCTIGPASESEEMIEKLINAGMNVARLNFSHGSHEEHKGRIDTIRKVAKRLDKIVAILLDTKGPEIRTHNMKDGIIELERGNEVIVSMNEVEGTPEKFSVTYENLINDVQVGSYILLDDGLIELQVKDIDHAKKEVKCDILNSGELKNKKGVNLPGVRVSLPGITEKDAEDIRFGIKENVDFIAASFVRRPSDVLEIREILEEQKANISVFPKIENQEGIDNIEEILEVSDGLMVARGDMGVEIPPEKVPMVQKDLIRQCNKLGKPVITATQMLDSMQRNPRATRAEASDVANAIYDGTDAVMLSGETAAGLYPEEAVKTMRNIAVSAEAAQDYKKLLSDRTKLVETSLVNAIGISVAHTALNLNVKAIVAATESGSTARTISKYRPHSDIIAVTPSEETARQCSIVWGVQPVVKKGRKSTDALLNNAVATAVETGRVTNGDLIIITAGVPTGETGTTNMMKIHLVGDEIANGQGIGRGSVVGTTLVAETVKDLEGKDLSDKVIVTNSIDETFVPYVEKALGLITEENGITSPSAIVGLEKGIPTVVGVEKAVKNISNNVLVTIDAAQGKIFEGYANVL

By IC50 is commonly meant the concentration that gives 50% inhibition. As a reminder, the MIC is the lowest concentration found to suppress growth. `Brc1ccc2cc(/C=C/c3ccccc3)[nH]c2c1` [Compound 36a, (E)-6-bromo-2-styryl-1H-indole] returned a half-inhibitory concentration (IC50) in test [1] of 25 nM. For the same compound, in test [2] (setting [3]), the minimal inhibitory concentration (MIC) is above 64 µg/mL.

`CC(=O)c1c(CCc2ccccc2)[nH]c2cc(Br)ccc12` [Compound 39a, 1-(6-bromo-2-phenethyl-1H-indol-3-yl)ethanone] registered an IC50 in test [1] of 608 nM. Moreover, the MIC in test [2] (setting [3]) is above 64 µg/mL.

As for `Brc1ccc(/C=C/c2cc3ccc(Br)cc3[nH]2)nc1` [Compound 99, (E)-6-Bromo-2-(2-(5-bromopyridin-2-yl)vinyl)-1H-indole], the IC50 in test [1] was 50 to 100 nM. The MIC in test [2] (setting [4]) was found to be 32 µg/mL (≈ 84.6 µM).

In the case of `O=C(Nc1nc2ccc(Br)cc2s1)c1ccc(Br)cc1O` [Compound 67, 4-Bromo-N-(6-bromobenzo[d]thiazol-2-yl)-2-hydroxybenzamide], the 50% inhibitory concentration (IC50) in test [1] (setting [5]) came out at 214 nM. Moreover, in test [2] (setting [3]), the MIC was above 64 µg/mL.

For the compound `O=C(c1cc2ccc(Br)cc2[nH]1)c1cc(Br)ccc1O` [Compound 87, (6-Bromo-1H-indol-2-yl)(5-bromo-2-hydroxyphenyl)methanone], in test [1], the inhibition at 10 µM came to 58%. The MIC in test [2] (setting [3]) is above 64 µg/mL.

As usually defined, the EC50 is the concentration needed to bring the measured effect to its halfway point. Low values mean a more potent agent, high ones a less potent agent. Compound `Clc1ccc(NCc2cc3ccc(Br)cc3[nH]2)cc1` [Compound 147, N-((6-Bromo-1H-indol-2-yl)methyl)-4-chloroaniline] had an EC50 in test [1] of 244 nM. For the same compound, in test [2] (setting [4]), the MIC is above 64 µg/mL.

Take `Brc1ccc2cc(CSc3nc4ccccc4[nH]3)[nH]c2c1` [Compound 148, 2-(((6-Bromo-1H-indol-2-yl)methyl)thio)-1H-benzo[d]imidazole]: the half-inhibitory concentration (IC50) in test [1] is above 1000 nM. Moreover, in test [2] (setting [4]), the minimal inhibitory concentration (MIC) was determined as 32 µg/mL (≈ 89.3 µM).

In turn, `O=C(Nc1nc2ccc(Br)cc2s1)c1cc2cc(Br)ccc2[nH]1` [Compound 82, 5-Bromo-N-(6-bromobenzo[d]thiazol-2-yl)-1H-indole-2-carboxamide] came in with an IC50 in test [1] of 22.5 nM. For the same compound, in test [2] (setting [3]), the MIC was above 64 µg/mL.

`Oc1ccc(Br)cc1-c1ccnc(-c2cc3ccc(Br)cc3[nH]2)c1` [Compound 86, 4-bromo-2-(2-(6-bromo-1H-indol-2-yl)pyridin-4-yl)phenol]: the inhibition at 10 µM in test [1] was 62%. Besides, the minimal inhibitory concentration (MIC) in test [2] (setting [3]) is above 64 µg/mL.

In the case of `Brc1ccc2cc(C#Cc3cc4ccc(Br)cc4[nH]3)[nH]c2c1` [Compound 25b, 1,2-Bis(6-bromo-1H-indol-2-yl)ethyne], in test [1] (setting [5]), the IC50 was 2.4 nM. Further, the MIC in test [2] (setting [3]) is above 64 µg/mL.

As for `Cn1c(C#Cc2cc3cc(Br)ccc3[nH]2)cc2cc(Br)ccc21` [Compound 48, 5-Bromo-2-((5-bromo-1H-indol-2-yl)ethynyl)-1-methyl-1H-indole], the inhibition at 10 µM in test [1] is 60%. The MIC in test [2] (setting [3]) is above 64 µg/mL.

Regarding `COC(=O)c1cc(Br)cc2[nH]c(/C=C/c3ccc(Cl)cc3)cc12` [Compound 157, (E)-Methyl 6-bromo-2-(4-chlorostyryl)-1H-indole-4-carboxylate], the IC50 in test [1] is above 1000 nM. Also, the MIC in test [2] (setting [4]) is above 64 µg/mL.

Turning to `O=C(O)c1c(-c2cc3cc(Cl)ccc3[nH]2)[nH]c2cc(Br)ccc12` [Compound 162, 6-bromo-5′-chloro-1H,1′H-[2,2′-biindole]-3-carboxylic acid], in test [1], the half-inhibitory concentration (IC50) was below 50 nM. Besides, the MIC in test [2] (setting [4]) turned out to be 4 µg/mL (≈ 10.3 µM).

In test [1], `Brc1ccc2cc(-c3ccc(-c4ccn[nH]4)s3)[nH]c2c1` [Compound 81, 2-(5-(1H-Pyrazol-5-yl)thiophen-2-yl)-6-bromo-1H-indole] registered a concentration for half-maximal inhibition (IC50) of 74.5 nM. The MIC in test [2] (setting [3]) came to 0.5 µg/mL (≈ 1.45 µM).

Consider `Clc1cc(Cl)cc(CCc2cc3ccc(Br)cc3[nH]2)c1` [Compound 119, 6-Bromo-2-(3,5-dichlorophenethyl)-1H-indole], for which, in test [1], the half-maximal inhibitory concentration (IC50) was above 100000 nM. In addition, the MIC in test [2] (setting [4]) is above 64 µg/mL.

As to `Brc1ccc2cc(-c3ccc(-c4cc5ccc(Br)cc5[nH]4)nn3)[nH]c2c1` [Compound 49, 3,6-bis(6-Bromo-1H-indol-2-yl)pyridazine], the inhibition at 10 µM in test [1] is 70%. Further, in test [2] (setting [3]), the MIC is above 32 µg/mL.

In test [1], `Fc1ccc(/C=C/c2cc3ccc(Br)cc3[nH]2)cc1` [Compound 103, (E)-6-Bromo-2-(4-fluorostyryl)-1H-indole] yielded an IC50 above 1000 nM. Also, the MIC in test [2] (setting [4]) was above 64 µg/mL.

Compound `O=C(Nc1nc2cc(Br)ccc2s1)c1cc2cc(Br)ccc2[nH]1` [Compound 77, 5-Bromo-N-(5-bromobenzo[d]thiazol-2-yl)-1H-indole-2-carboxamide] displayed a half-inhibitory concentration (IC50) in test [1] of 8.2 nM. For the same compound, the MIC in test [2] (setting [3]) is above 64 µg/mL.

Take `COC(=O)c1c(-c2cc3cc(Br)c(Br)cc3[nH]2)[nH]c2cc(Br)c(Br)cc12` [Compound 39d]: 2.1 nM corresponded to half-maximal inhibition in test [1] (IC50). In addition, in test [2] (setting [3]), the MIC stood at 4 µg/mL (≈ 6.6 µM).

`Clc1ccc(/C=C/c2cc3ccc(Br)cc3[nH]2)cn1` [Compound 98, (E)-6-Bromo-2-(2-(6-chloropyridin-3-yl)vinyl)-1H-indole]: in test [1], the half-inhibitory concentration (IC50) was below 50 nM. Moreover, in test [2] (setting [4]), the MIC was above 64 µg/mL.

In the case of `C(=C\c1cc2ccccc2[nH]1)/c1cc2ccccc2[nH]1` [Compound 44], the inhibition at 10 µM in test [1] was 63%. Also, in test [2] (setting [3]), the MIC was above 64 µg/mL.

In test [1], `CC(=O)c1c(CCc2cn3c(n2)CCCC3)[nH]c2cc(Br)ccc12` [Compound 127, 1-(6-Bromo-2-(2-(5,6,7,8-tetrahydroimidazo[1,2-a]pyridin-2-yl)ethyl)-1H-indol-3-yl)ethan-1-one] came in with an IC50 above 100000 nM. In addition, the minimal inhibitory concentration (MIC) in test [2] (setting [4]) was 64 µg/mL (≈ 166 µM).

Compound `Brc1ccc2cc(CNCc3ccccc3)[nH]c2c1` [Compound 146, N-Benzyl-1-(6-bromo-1H-indol-2-yl)methanamine] gave a half-inhibitory concentration (IC50) in test [1] above 1000 nM. Besides, the MIC in test [2] (setting [4]) was determined as 32 µg/mL (≈ 102 µM).

Compound `Brc1ccc2cc(/C=C/c3cn4ccccc4n3)[nH]c2c1` [Compound 110, (E)-2-(2-(6-Bromo-1H-indol-2-yl)vinyl)imidazo[1,2-a]pyridine] registered an IC50 in test [1] below 50 nM. The MIC in test [2] (setting [4]) was above 64 µg/mL.

In test [1], `CC(=O)c1c(/C=C/c2ccccc2)[nH]c2cc(Br)ccc12` [Compound 38a, (E)-1-(6-bromo-2-styryl-1H-indol-3-yl)ethanone] came in with a half-maximal inhibitory concentration (IC50) above 20000 nM. The minimum inhibitory concentration (MIC) in test [2] (setting [3]) is above 64 µg/mL.

In turn, `CC(=O)c1c(CCc2ccc(Cl)cc2)[nH]c2cc(Br)ccc12` [Compound 39b, 1-(6-bromo-2-(4-chlorophenethyl)-1H-indol-3-yl)ethanone] displayed an IC50 in test [1] of 28 nM. Also, in test [2] (setting [3]), the MIC is 4 µg/mL (≈ 10.6 µM).

As to `Brc1ccc2[nH]c(-c3ccc(-c4cc5ccc(Br)cc5[nH]4)s3)cc2c1` [Compound 47, 6-Bromo-2-(5-(5-bromo-1H-indol-2-yl)thiophen-2-yl)-1H-indole], the inhibition at 10 µM in test [1] came out at 52%. Besides, the MIC in test [2] (setting [3]) was above 64 µg/mL.

For the compound `Clc1cnc(/C=C/c2cc3ccc(Br)cc3[nH]2)cn1` [Compound 118, (E)-6-Bromo-2-(2-(5-chloropyrazin-2-yl)vinyl)-1H-indole], the IC50 in test [1] was 50 to 100 nM. In addition, the MIC in test [2] (setting [4]) was 16 µg/mL (≈ 47.8 µM).

For `O=C(Nc1ccc(Br)cc1)c1cc2ccccc2[nH]1` [Compound 52], the inhibition at 10 µM in test [1] was 67%. The MIC in test [2] (setting [3]) is above 32 µg/mL.

In the case of `Brc1ccc(/C=C/c2cc3ccc(Br)cc3[nH]2)cc1` [Compound 36b, (E)-6-bromo-2-(4-bromostyryl)-1H-indole], the midpoint of inhibition in test [1], the IC50, lay at 1 nM. In addition, the MIC in test [2] (setting [3]) is above 64 µg/mL.

In turn, `O=C(Nc1nc2ccc(Br)cc2[nH]1)c1cc(Br)ccc1O` [Compound 78, 5-Bromo-N-(6-bromo-1H-benzo[d]imidazol-2-yl)-2-hydroxybenzamide] returned an IC50 in test [1] of 11.3 nM. The minimal inhibitory concentration (MIC) in test [2] (setting [3]) is 4 µg/mL (≈ 9.73 µM).
